Experiment: xn = mol fraction of the nth substance listed
Details: 101 kPa

O + CCCC[n+]1ccn(C)c1.F[B-](F)(F)F
viscosity (303.15 K, x1 = 1): 0.8 mPa·s | viscosity (308.15 K, x1 = 1): 0.72 mPa·s | viscosity (313.15 K, x1 = 1): 0.65 mPa·s | viscosity (318.15 K, x1 = 1): 0.6 mPa·s | viscosity (323.15 K, x1 = 1): 0.55 mPa·s | viscosity (343.15 K, x1 = 1): 0.4 mPa·s | viscosity (353.15 K, x1 = 1): 0.35 mPa·s

CCCC[n+]1ccn(C)c1.F[B-](F)(F)F + O
viscosity (303.15 K, x2 = 0.1002): 47.6 mPa·s | viscosity (303.15 K, x2 = 0.209): 34.9 mPa·s | viscosity (303.15 K, x2 = 0.2984): 23.3 mPa·s | viscosity (303.15 K, x2 = 0.4001): 16.6 mPa·s | viscosity (303.15 K, x2 = 0.5014): 12 mPa·s | viscosity (303.15 K, x2 = 0.6004): 10 mPa·s | viscosity (303.15 K, x2 = 0.7): 6.7 mPa·s | viscosity (303.15 K, x2 = 0.8): 4.36 mPa·s | viscosity (303.15 K, x2 = 0.8999): 2.53 mPa·s | viscosity (308.15 K, x2 = 0): 58.2 mPa·s | viscosity (308.15 K, x2 = 0.2984): 19.4 mPa·s | viscosity (308.15 K, x2 = 0.4001): 13.6 mPa·s | viscosity (308.15 K, x2 = 0.5014): 10.5 mPa·s | viscosity (308.15 K, x2 = 0.6004): 8.7 mPa·s | viscosity (308.15 K, x2 = 0.7): 5.85 mPa·s | viscosity (308.15 K, x2 = 0.8): 3.8 mPa·s | viscosity (308.15 K, x2 = 0.8999): 2.21 mPa·s | viscosity (313.15 K, x2 = 0.1002): 30.7 mPa·s | viscosity (313.15 K, x2 = 0.209): 23.5 mPa·s | viscosity (313.15 K, x2 = 0.2984): 16.2 mPa·s | viscosity (313.15 K, x2 = 0.4001): 11.4 mPa·s | viscosity (313.15 K, x2 = 0.7): 5.35 mPa·s | viscosity (313.15 K, x2 = 0.8): 3.36 mPa·s | viscosity (313.15 K, x2 = 0.8999): 1.95 mPa·s | viscosity (318.15 K, x2 = 0): 37.8 mPa·s | viscosity (318.15 K, x2 = 0.1002): 25.7 mPa·s | viscosity (318.15 K, x2 = 0.209): 19.6 mPa·s | viscosity (318.15 K, x2 = 0.2984): 14.1 mPa·s | viscosity (318.15 K, x2 = 0.4001): 9.7 mPa·s | viscosity (318.15 K, x2 = 0.5014): 7.8 mPa·s | viscosity (318.15 K, x2 = 0.7): 4.53 mPa·s | viscosity (318.15 K, x2 = 0.8): 2.99 mPa·s | viscosity (318.15 K, x2 = 0.8999): 1.73 mPa·s | viscosity (323.15 K, x2 = 0): 31.1 mPa·s | viscosity (323.15 K, x2 = 0.1002): 21.5 mPa·s | viscosity (323.15 K, x2 = 0.2984): 11.7 mPa·s | viscosity (323.15 K, x2 = 0.5014): 6.8 mPa·s | viscosity (323.15 K, x2 = 0.6004): 5.69 mPa·s | viscosity (323.15 K, x2 = 0.7): 4.05 mPa·s | viscosity (323.15 K, x2 = 0.8): 2.68 mPa·s | viscosity (323.15 K, x2 = 0.8999): 1.54 mPa·s | viscosity (333.15 K, x2 = 0): 21.5 mPa·s | viscosity (333.15 K, x2 = 0.1002): 15.4 mPa·s | viscosity (333.15 K, x2 = 0.209): 12 mPa·s | viscosity (333.15 K, x2 = 0.2984): 8.6 mPa·s | viscosity (333.15 K, x2 = 0.4001): 6.2 mPa·s | viscosity (333.15 K, x2 = 0.5014): 5.28 mPa·s | viscosity (333.15 K, x2 = 0.6004): 4.75 mPa·s | viscosity (333.15 K, x2 = 0.7): 3.29 mPa·s | viscosity (333.15 K, x2 = 0.8): 2.19 mPa·s | viscosity (333.15 K, x2 = 0.8999): 1.28 mPa·s | viscosity (343.15 K, x2 = 0): 15.6 mPa·s | viscosity (343.15 K, x2 = 0.1002): 11.5 mPa·s | viscosity (343.15 K, x2 = 0.209): 9 mPa·s | viscosity (343.15 K, x2 = 0.4001): 4.68 mPa·s | viscosity (343.15 K, x2 = 0.5014): 4.24 mPa·s | viscosity (343.15 K, x2 = 0.8): 1.82 mPa·s | viscosity (353.15 K, x2 = 0): 11.5 mPa·s | viscosity (353.15 K, x2 = 0.209): 6.8 mPa·s | viscosity (353.15 K, x2 = 0.2984): 4.96 mPa·s | viscosity (353.15 K, x2 = 0.4001): 3.56 mPa·s | viscosity (353.15 K, x2 = 0.5014): 3.44 mPa·s | viscosity (353.15 K, x2 = 0.7): 2.31 mPa·s | viscosity (353.15 K, x2 = 0.8): 1.54 mPa·s | viscosity (353.15 K, x2 = 0.8999): 0.91 mPa·s

Source: a compilation of properties of binary mixtures (doi:10.1021/je050387r)
